From the supplement of paper PMC10307832

Key:
Assay in all cases: relative viability (nuclei count vs DMSO), 5 days (fraction); higher = more cells survive
Salubrinal + Tozasertib = compound: O=C(/C=C/c1ccccc1)NC(NC(=S)Nc1cccc2cccnc12)C(Cl)(Cl)Cl [Salubrinal] + Cc1cc(Nc2cc(N3CCN(C)CC3)nc(Sc3ccc(NC(=O)C4CC4)cc3)n2)n[nH]1 [Tozasertib] (partner 0.1 µM)
Procedure, shortened: (§1)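 Cells from lung cancer lines were seeded into 1536-well plates and, one day later, dosed by pin tool. Treatments were either a single drug or a fixed dose of an anchor drug with five library-drug doses (not always all listed) in √10 steps. After 5 days, nuclei were stained in a one-step fixation (final 0.05% Triton X-100, 1% formaldehyde, 1 ug/ml Hoechst) and counted on 4× images, and relative viability is the treated-to-vehicle nuclei ratio, as the median of duplicate plates.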

[1] = compound: Cc1ccc2nc(NCCN)c3ncc(C)n3c2c1 + C[C@@H](Oc1cc(-c2cnn(C3CCNCC3)c2)cnc1N)c1c(Cl)ccc(F)c1Cl [Crizotinib] (partner 1 µM)
Procedure, shortened: as §1

Salubrinal + Decitabine = compound: O=C(/C=C/c1ccccc1)NC(NC(=S)Nc1cccc2cccnc12)C(Cl)(Cl)Cl [Salubrinal] + Nc1ncn([C@H]2C[C@H](O)[C@@H](CO)O2)c(=O)n1 [Decitabine] (partner 2 µM)
Procedure, shortened: as §1

Salubrinal + Trametinib = compound: O=C(/C=C/c1ccccc1)NC(NC(=S)Nc1cccc2cccnc12)C(Cl)(Cl)Cl [Salubrinal] + CC(=O)Nc1cccc(-n2c(=O)n(C3CC3)c(=O)c3c(Nc4ccc(I)cc4F)n(C)c(=O)c(C)c32)c1 [Trametinib] (partner 0.02 µM)
Procedure, shortened: as §1

Q: What does the source list for UMC-11?
A: relative viability (Salubrinal + Tozasertib; first compound 0.08 µM): 0.208; relative viability (Salubrinal + Tozasertib; first compound 0.253 µM): 0.225; relative viability (Salubrinal + Tozasertib; first compound 0.8 µM): 0.21; relative viability (Salubrinal + Tozasertib; first compound 2.53 µM): 0.186; relative viability (Salubrinal + Tozasertib; first compound 8 µM): 0.189; relative viability ([1]; first compound 0.04 µM): 0.7; relative viability ([1]; first compound 0.1265 µM): 0.57; relative viability ([1]; first compound 0.4 µM): 0.6; relative viability ([1]; first compound 1.265 µM): 0.646; relative viability ([1]; first compound 4 µM): 0.481; relative viability (Salubrinal + Decitabine; first compound 0.08 µM): 0.548; relative viability (Salubrinal + Decitabine; first compound 0.253 µM): 0.608; relative viability (Salubrinal + Decitabine; first compound 0.8 µM): 0.674; relative viability (Salubrinal + Decitabine; first compound 2.53 µM): 0.606; relative viability (Salubrinal + Decitabine; first compound 8 µM): 0.561; relative viability (Salubrinal + Trametinib; first compound 0.08 µM): 0.468; relative viability (Salubrinal + Trametinib; first compound 0.253 µM): 0.749; relative viability (Salubrinal + Trametinib; first compound 0.8 µM): 0.741; relative viability (Salubrinal + Trametinib; first compound 2.53 µM): 0.775; relative viability (Salubrinal + Trametinib; first compound 8 µM): 0.826
